Activity calls are given as the source filed them. The calls are words filed in the database; no cut-off is given here.
Experiments:
[1] = test system: Human immunodeficiency virus 1; test: Antiviral activity against HIV1 3B infected in human CEM cells assessed as reduction in virus-induced cytopathicity after 4 to 5 days by microscopy based syncytium cell formation assay; assay type: functional, organism-based, CCRF-CEM
[2] = test system: Human immunodeficiency virus 2; test: Antiviral activity against HIV2 ROD infected in human CEM cells assessed as reduction in virus-induced cytopathicity after 4 to 5 days by microscopy based syncytium cell formation assay; assay type: functional, organism-based, ISOLATE ROD, CCRF-CEM; conditions: ccrf-cem
Hepatitis C virus = test: Antiviral activity against HCV genotype 1b I389luc-ubi-neo/NS3-3'/5.1 replicons infected in human Huh5-2 HCV subgenomic replicon-containing cells assessed as reduction in virus replication after 3 days by luciferase reporter gene assay; assay type: functional, Hepacivirus hominis; conditions: for EC90: Hepacivirus hominis
[3] = Cytotoxicity against human CEM cells assessed as inhibition of cell proliferation; assay type: cell-based; conditions: CEM cells (CCRF-CEM)
Vaccinia virus = test: Antiviral activity against vaccinia virus; assay type: functional, organism-based; conditions: Orthopoxvirus vaccinia
[4] = test system: Vesicular stomatitis virus; test: Antiviral activity against vesicular stomatitis virus; assay type: functional, organism-based
Coxsackievirus B4 = test: Antiviral activity against human coxsackievirus B4; assay type: functional, organism-based
[5] = test system: Respiratory syncytial virus; test: Antiviral activity against RSV; assay type: functional, organism-based
Human respirovirus 3 = test: Antiviral activity against human parainfluenza virus 3; assay type: functional, organism-based
Reovirus sp. = test: Antiviral activity against reovirus; assay type: functional, organism-based
Sindbis virus = test: Antiviral activity against sindbis virus; assay type: functional, organism-based
Influenza A virus H3N2 = test: Antiviral activity against influenza A virus H3N2; assay type: functional, organism-based
Influenza A virus = test: Antiviral activity against influenza A virus (H1N1); assay type: functional, organism-based
Punta Toro virus = test: Antiviral activity against punta toro virus; assay type: functional, organism-based
Feline coronavirus = test: Antiviral activity against feline coronavirus; assay type: functional, organism-based
Felid alphaherpesvirus 1 = test: Antiviral activity against feline herpesvirus; assay type: functional, organism-based
Chikungunya virus = test: Antiviral activity against chikungunya virus; assay type: functional
[6] = Human immunodeficiency virus 1, 3B, CCRF-CEM, read-out: EC50

Structure (SMILES) | EC50 ([1]; ccrf-cem) | EC50 [2] | EC50 (Hepatitis C virus) | EC90 (Hepatitis C virus) | other results
COc1cc(C(=O)NCCCCCCCCCCNC(=O)c2cc(OC)c(OC)c(OC)c2)cc(OC)c1OC | Not Active | Not Active | Not Active | inactive | –
O=C(NCCCCCCCCNC(=O)c1ccc(OCc2ccccc2)c(OCc2ccccc2)c1OCc1ccccc1)c1ccc(OCc2ccccc2)c(OCc2ccccc2)c1OCc1ccccc1 | Not Active | Not Active | Not Active | inactive | –
O=C(NCCCCCCCCCCNC(=O)c1ccc(OCc2ccccc2)c(OCc2ccccc2)c1OCc1ccccc1)c1ccc(OCc2ccccc2)c(OCc2ccccc2)c1OCc1ccccc1 | Not Active | Not Active | Not Active | inactive | –
COc1cc(C(=O)NCCN(CCN(CCN(CCNC(=O)c2cc(OC)c(OC)c(OC)c2)C(=O)c2cc(OC)c(OC)c(OC)c2)C(=O)c2cc(OC)c(OC)c(OC)c2)C(=O)c2cc(OC)c(OC)c(OC)c2)cc(OC)c1OC | Not Active | Not Active | Not Active | inactive | –
O=C(NCCCCNC(=O)c1ccc(OCc2ccccc2)c(OCc2ccccc2)c1OCc1ccccc1)c1ccc(OCc2ccccc2)c(OCc2ccccc2)c1OCc1ccccc1 | Not Active | Not Active | Not Active | inactive | –
O=C(NCCCCNC(=O)c1ccccc1OCc1ccccc1)c1ccccc1OCc1ccccc1 | Not Active | Not Active | Not Active | inactive | –
COc1cc(C(=O)NCCN(CCNC(=O)c2cc(OC)c(OC)c(OC)c2)C(=O)c2cc(OC)c(OC)c(OC)c2)cc(OC)c1OC | Not Active | Not Active | Not Active | inactive | –
COc1cc(C(=O)NCCCCCCCCCCCCNC(=O)c2cc(OC)c(OC)c(OC)c2)cc(OC)c1OC | Not Active | Not Active | Not Active | inactive | –
O=C(NCCN(CCNC(=O)c1ccc(OCc2ccccc2)c(OCc2ccccc2)c1OCc1ccccc1)CCNC(=O)c1ccc(OCc2ccccc2)c(OCc2ccccc2)c1OCc1ccccc1)c1ccc(OCc2ccccc2)c(OCc2ccccc2)c1OCc1ccccc1 | Not Active | Not Active | Not Active | inactive | –
O=C(NCCCCCCCCCCCCNC(=O)c1ccc(OCc2ccccc2)c(OCc2ccccc2)c1OCc1ccccc1)c1ccc(OCc2ccccc2)c(OCc2ccccc2)c1OCc1ccccc1 | Not Active | Not Active | Not Active | inactive | –
O=C(NCCNC(=O)c1ccccc1OCc1ccccc1)c1ccccc1OCc1ccccc1 | Not Active | Not Active | Not Active | inactive | –
COc1cc(C(=O)NCCCCNC(=O)c2cc(OC)c(OC)c(OC)c2)cc(OC)c1OC | Not Active | Not Active | Not Active | inactive | –
COc1cc(C(=O)NCCCCCCCCNC(=O)c2cc(OC)c(OC)c(OC)c2)cc(OC)c1OC | Not Active | Not Active | Not Active | inactive | –
O=C(NCCCCCCNC(=O)c1ccc(OCc2ccccc2)c(OCc2ccccc2)c1OCc1ccccc1)c1ccc(OCc2ccccc2)c(OCc2ccccc2)c1OCc1ccccc1 | Not Active | Not Active | Not Active | inactive | –
COc1cccc(C(=O)NCCCCCCCCCCCCNC(=O)c2cccc(OC)c2OC)c1OC | Not Active | Not Active | Not Active | inactive | –
CN[C@@H]1[C@H](O[C@@H]2OC[C@@H](O)[C@H](O)[C@H]2O)[C@@H](O)[C@H](O[C@H]2c3cc(C)c(C(=O)N[C@H](C)C(=O)O)c(O)c3-c3c(cc4c(c3O)C(=O)c3cc(OC)cc(O)c3C4=O)[C@@H]2O)O[C@@H]1C [PRADIMICIN A] | – | – | – | – | EC50 [1, 6]: 3.3 µM; CC50 [3]: > 100 µM
O=C(NCCCOCCOCCOCCCNC(=O)c1ccc(OCc2ccccc2)c(OCc2ccccc2)c1OCc1ccccc1)c1ccc(OCc2ccccc2)c(OCc2ccccc2)c1OCc1ccccc1 | Not Active | Not Active | Not Active | inactive | –
COc1cccc(C(=O)NCCCCNC(=O)c2cccc(OC)c2OC)c1OC | Not Active | Not Active | Not Active | inactive | –
COc1cc(C(=O)NCCCCCCNC(=O)c2cc(OC)c(OC)c(OC)c2)cc(OC)c1OC | Not Active | Not Active | Not Active | inactive | –
COc1cc(C(=O)NCCCCN(CCCNC(=O)c2cc(OC)c(OC)c(OC)c2)C(=O)c2cc(OC)c(OC)c(OC)c2)cc(OC)c1OC | Not Active | Not Active | Not Active | inactive | –
O=C(NCCCCN(CCCNC(=O)c1ccc(OCc2ccccc2)c(OCc2ccccc2)c1OCc1ccccc1)C(=O)c1ccc(OCc2ccccc2)c(OCc2ccccc2)c1OCc1ccccc1)c1ccc(OCc2ccccc2)c(OCc2ccccc2)c1OCc1ccccc1 | Not Active | Not Active | Not Active | inactive | –
O=C(NCCCCCCCCCCCCNC(=O)c1ccccc1OCc1ccccc1)c1ccccc1OCc1ccccc1 | Not Active | Not Active | Not Active | inactive | –
O=C(NCCCCNC(=O)c1cccc(O)c1O)c1cccc(O)c1O | – | – | – | – | EC50 [1, 6]: > 2 µM; CC50 [3]: 5.2 µM; Activity (Vaccinia virus): inactive; Activity [4]: inactive; Activity (Coxsackievirus B4): inactive; Activity [5]: inactive; Activity (Human respirovirus 3): inactive; Activity (Reovirus sp.): inactive; Activity (Sindbis virus): inactive; Activity (Influenza A virus H3N2): inactive; Activity (Influenza A virus): inactive; Activity (Punta Toro virus): inactive; Activity (Feline coronavirus): inactive; Activity (Felid alphaherpesvirus 1): inactive; Activity (Chikungunya virus): inactive
COc1cc(C(=O)NCCN(CCNC(=O)c2cc(OC)c(OC)c(OC)c2)CCNC(=O)c2cc(OC)c(OC)c(OC)c2)cc(OC)c1OC | Not Active | Not Active | Not Active | inactive | –
C[C@H](Cn1cnc2c(N)ncnc21)OCP(=O)(O)O [TENOFOVIR ANHYDROUS] | – | – | – | – | CC50 [3]: > 100 µM
COc1cccc(C(=O)NCCNC(=O)c2cccc(OC)c2OC)c1OC | Not Active | Not Active | Not Active | inactive | –
